Source: publication PMC10671431, “New Derivatives of N-Hydroxybutanamide: Preparation, MMP Inhibition, Cytotoxicity, and Antitumor Activity” (International Journal of Molecular Sciences, 2023)

Columns and labels:
[1] = tested on: B16 melanoma; experiment: Antimetastatic activity in vivo, lung metastases; design: species or system mouse; conditions: lungs, B16 melanoma, BDF1 mice, doses as in Table 5; for Number of Animals without Metastases: of 6 animals in the group
Experimental: (§1) Antitumor activity in vivo. The B16 mouse melanoma was used as a tumor model. The B16 melanoma tumor strain was induced in male BDF1 mice by subcutaneous inoculation of 0.2–0.5 mL of a suspension of tumor tissue in medium 199 at intervals of 12–16 days. For the experiments, BDF1 mice were inoculated with 0.3 mL of a suspension of tumor tissue diluted in a 0.9% NaCl solution at a ratio of 1:5 subcutaneously on the right side.
(§2) Compound 4 was dissolved in a 0.9% NaCl solution with 1% DMSO. […] Control animals were injected intraperitoneally with 1% DMSO in saline (0.9% NaCl) in the same volumes as the test compounds.
And MNMcont. are the mean number of metastases in the experimental and control groups, respectively.

[2] = tested on: B16 melanoma; experiment: Antitumor activity in vivo, tumor growth; design: species or system mouse; conditions: BDF1 mice, i.p., CP 100 mg/kg days 2, 7, cPt 4 mg/kg days 2–9, 4 300 mg/kg days 2–9
Experimental: as §1, §2
Tumor growth was monitored on days 0, 6, 8, 10, 13, 15, 17, and 20 by measuring the tumor size with a digital caliper. The mean tumor diameter was calculated using the formula:D = 3√a × b × c,(2) where a, b, and c are mutually perpendicular tumor diameters.

[3] = tested on: HepG2; experiment: Cytotoxicity, MTT test; assay type: cell-based, human
Experimental: (§3) Cell culture. A-172 (human glioblastoma cells), HepG2 (human hepatocellular carcinoma cells), M-HeLa (human cervical adenocarcinoma cells, M subclone), Vero (African green monkey kidney epithelial cells), and FetMSC (human embryonic mesenchymal stem cells) were purchased from the Russian Collection of Cell Cultures of Vertebrates (Institute of Cytology RAS, St. Petersburg, Russia). The U-251 MG cell line (human glioblastoma-astrocytoma) was purchased from the European Collection of Authenticated Cell Cultures (Salisbury, UK). All cells were grown at 37 °C in an atmosphere of 5% CO2. A-172 and Vero cells were cultured in DMEM medium (PanEco, Moscow, Russia). HepG2, HeLa, and U-251 MG cells were cultured in EMEM medium (PanEco). FetMSC cells were cultured in F12/DMEM medium (PanEco). All incubation media were supplemented with 10% fetal calf serum (BioWest, Nuaillé, France), 50 U/mL penicillin, and […] streptomycin (PanEco). Additionally, media for HeLa, HepG2, and U-251 MG cells were supplemented with 2 mM glutamine (PanEco) and 1% essential amino acids (PanEco), media for A-172 and Vero cells were supplemented with 4 mM glutamine, and the medium for FetMSC cells was supplemented with 3 mM glutamine. The medium for U-251 MG cells was additionally supplemented with 1 mM sodium pyruvate (PanEco).
(§4) Cytotoxicity studies. The cytotoxicity of the compounds was assessed using the MTT test. Cells were seeded into 96-well plates at varying concentrations of 5 × 10^4 cells/mL (A-172, Vero and HeLa), 7 × 10^4 cells/mL (HepG2 and U-251 MG), and 10 × 10^4 cells/mL (FetMSC). The studied compounds were added to the incubation medium 24 h after seeding at concentrations ranging from 7.8 μM to 500 μM. All compounds were dissolved in DMSO and diluted with the incubation medium to their final concentrations just before use. The incubation medium in wells was aspirated and replaced with medium containing the studied compounds. The final concentration of DMSO in all samples was 0.1%. Control samples were treated with 0.1% DMSO. After 72 h of exposure, 3-(4,5-dimethylthiazol-2-yl)-2,5-diphenyl-2H-tetrazolium bromide (MTT) (Dia-M, Moscow, Russia) was added to the incubation medium at a concentration of 0.5 mg/mL. The resulting MTT-formazan crystals were dissolved in DMSO. The optical density was measured at 570 nm with a background wavelength of 620 nm using a Spark 10M plate reader. IC50 values were determined using a median effect analysis from the dose–effect relationships.

[4] = tested on: HeLa; experiment: Cytotoxicity, MTT test; assay type: cell-based, human; conditions: 72 h of exposure
Experimental: as §3, §4

[5] = tested on: A-172; experiment: Cytotoxicity, MTT test; assay type: cell-based, human
Experimental: as §3, §4

[6] = tested on: Vero; experiment: Cytotoxicity, MTT test; assay type: cell-based, African green monkey; conditions: 72 h of exposure
Experimental: as §3, §4

[7] = tested on: FetMSC; experiment: Cytotoxicity, MTT test; assay type: cell-based, human; conditions: Homo sapiens; 72 h of exposure, MTT
Experimental: as §3, §4

[8] = Cytotoxicity, MTT test, statements on all cell lines studied; assay type: cell-based; conditions: human, African green monkey, 72 h of exposure, summary over cell lines, read-out: cytotoxicity IC50, cells in general
Experimental: as §3, §4

[9] = tested on: U-251 MG; experiment: Cytotoxicity, MTT test; assay type: cell-based; conditions: Homo sapiens, 72 h of exposure
Experimental: as §3, §4

[10] = target: T1, MMP-14 (Homo sapiens, UniProt P50281); experiment: MMP activity assay, fluorogenic substrate (MMP Inhibitor Profiling Kit); assay type: biochemical; conditions: read-out: MMP-inhibiting activity IC50, MMP-14
T1 construct: the BML- prefix points to Enzo Life Sciences, own knowledge BML-AK308
Experimental: (§5) Determination of MMP activity. A fluorescently labeled substrate probe containing a fluorescent label and a fluorescence quencher, was utilized for this study. […] Enzyme activity was assessed using the MMP Inhibitor Profiling Kit (Product # BML-AK308, New York, NY, USA) according to the manufacturer’s recommendations. The nonspecific inhibitor NNGH was used as a positive control. The fluorescence of the fluorogenic substrate OmniMMP^TM RED was measured at wavelengths Ex/Em = 545/576 nm using a Spark 10M multimode plate reader (Tecan, Zurich, Switzerland). Reaction rates were expressed in relative fluorescence units (RFUs) per minute. The activity of MMPs in the presence of the studied compounds was determined as follows:Activity, % = (Vinh/Vcont) × 100,(1) where V is the initial reaction rate (RFUs/min) in the presence (Vinh) and absence (Vcont) of the studied compounds.
(§6) All tested compounds were dissolved in DMSO. The final concentration of DMSO in all samples was 0.1%. Control samples were treated with 0.1% DMSO.

[11] = target: T2, MMP-2 (Homo sapiens, UniProt P08253); experiment: as above; assay type: biochemical; conditions: read-out: MMP-inhibiting activity IC50, MMP-2
T2 construct: the BML- prefix points to Enzo Life Sciences, own knowledge BML-AK308
Experimental: as §5, §6

[12] = target: T3, MMP-3 (Homo sapiens, UniProt P08254); experiment: as above; assay type: biochemical; conditions: read-out: MMP-inhibiting activity IC50, MMP-3
T3 construct: the BML- prefix points to Enzo Life Sciences, own knowledge BML-AK308
Experimental: as §5, §6

[13] = target: T4, MMP-9 (Homo sapiens, UniProt P14780); experiment: as above; assay type: biochemical; conditions: read-out: MMP-inhibiting activity IC50, MMP-9
T4 construct: the BML- prefix points to Enzo Life Sciences, own knowledge BML-AK308
Experimental: as §5, §6

[14] = Homo sapiens, HepG2, 72 h of exposure
[15] = Homo sapiens, A 172, 72 h of exposure

T4 sequence (P14780 107-444 limits assumed): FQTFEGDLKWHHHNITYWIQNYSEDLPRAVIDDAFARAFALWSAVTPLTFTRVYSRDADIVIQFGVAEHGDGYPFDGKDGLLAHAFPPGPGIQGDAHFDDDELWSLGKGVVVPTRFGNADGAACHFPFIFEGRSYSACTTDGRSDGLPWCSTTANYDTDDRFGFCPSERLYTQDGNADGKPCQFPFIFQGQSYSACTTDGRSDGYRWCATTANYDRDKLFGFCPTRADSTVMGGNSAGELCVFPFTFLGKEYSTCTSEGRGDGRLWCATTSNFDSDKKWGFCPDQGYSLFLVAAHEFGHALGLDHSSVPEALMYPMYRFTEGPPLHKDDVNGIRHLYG
T3 sequence (P08254 100-272 limits assumed): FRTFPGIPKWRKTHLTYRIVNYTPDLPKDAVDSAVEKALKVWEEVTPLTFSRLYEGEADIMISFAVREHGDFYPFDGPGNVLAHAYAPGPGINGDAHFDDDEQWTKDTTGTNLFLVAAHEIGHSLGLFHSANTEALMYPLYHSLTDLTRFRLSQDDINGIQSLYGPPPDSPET
T2 sequence (P08253 110-446 limits assumed): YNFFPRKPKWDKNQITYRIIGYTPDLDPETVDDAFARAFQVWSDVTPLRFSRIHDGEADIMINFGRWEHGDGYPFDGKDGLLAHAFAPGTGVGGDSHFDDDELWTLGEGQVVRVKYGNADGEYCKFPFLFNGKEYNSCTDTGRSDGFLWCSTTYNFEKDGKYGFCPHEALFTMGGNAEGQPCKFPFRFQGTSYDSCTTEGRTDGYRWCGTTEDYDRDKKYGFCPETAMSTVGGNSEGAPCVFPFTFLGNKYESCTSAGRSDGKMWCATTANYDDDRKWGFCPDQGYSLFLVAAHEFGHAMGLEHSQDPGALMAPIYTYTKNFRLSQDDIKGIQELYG

Structure (SMILES): O=P1(N(CCCl)CCCl)NCCCO1 (stereo not shown) [CP, cyclophosphamide]
- % Inhibition of Metastases [1]: 39.3%
- Mean Number of Metastases per Mouse [1]: 7.1 ± 2.2
- Metastasis Rate, % [1]: 100%
- Number of Animals without Metastases [1]: 0
- Tumor Growth Inhibition, % Day 10 [2]: 52.94%
- Tumor Growth Inhibition, % Day 13 [2]: 38.10%
- Tumor Growth Inhibition, % Day 15 [2]: 43.20%
- Tumor Growth Inhibition, % Day 17 [2]: 27.43%
- Tumor Growth Inhibition, % Day 20 [2]: 14.02%

Structure (SMILES): N.N.[Cl][Pt][Cl] [Cisplatin, cisplatin]
- IC50 ([3]; 72 h of exposure): 13.2 ± 1.62 µM
- IC50 [4]: 11.7 ± 2.41 µM
- IC50 ([5]; 72 h of exposure): 8.46 ± 0.92 µM
- % Inhibition of Metastases [1]: 71.9%
- Mean Number of Metastases per Mouse [1]: 3.3 ± 2.4
- Metastasis Rate, % [1]: 83.3%
- Number of Animals without Metastases [1]: 1
- IC50 [6]: 10.7 ± 1.45 µM
- Tumor Growth Inhibition, % Day 10 [2]: 76.47%
- Tumor Growth Inhibition, % Day 13 [2]: 61.11%
- Tumor Growth Inhibition, % Day 15 [2]: 52.07%
- Tumor Growth Inhibition, % Day 17 [2]: 32.00%
- Tumor Growth Inhibition, % Day 20 [2]: 9.54%

Structure (SMILES): O=C(CCC(=O)NNC(=O)c1ccccc1[N+](=O)[O-])NO [Compound 1, N-hydroxy-4-[2-(2-nitrobenzoyl)hydrazinyl]-4-oxobutanamide]
- IC50 [7]: > 500 µM
- IC50 [3, 14]: 393 ± 26.2 µM
- IC50 ([4]; Homo sapiens, HeLa): 377 ± 25.2 µM
- IC50 [5, 15]: > 500 µM
- IC50 ([6]; Chlorocebus sabaeus, Vero): > 500 µM
- IC50 at 72 h [8]: > 100 µM
- IC50 [9]: > 500 µM
- IC50 [10]: > 10 µM
- IC50 [11]: > 10 µM
- IC50 [12]: > 10 µM
- IC50 [13]: > 10 µM

Structure (SMILES): O=C(CCC(=O)NNC(=O)c1cccc([N+](=O)[O-])c1)NO [Compound 2, N-hydroxy-4-[2-(3-nitrobenzoyl)hydrazinyl]-4-oxobutanamide]
- IC50 [7]: > 500 µM
- IC50 [3, 14]: 213 ± 15.3 µM
- IC50 ([4]; Homo sapiens, HeLa): 185 ± 15.3 µM
- IC50 [5, 15]: > 500 µM
- IC50 ([6]; Chlorocebus sabaeus, Vero): > 500 µM
- IC50 at 72 h [8]: > 100 µM
- IC50 [9]: > 500 µM
- IC50 [10]: > 10 µM
- IC50 [11]: > 10 µM
- IC50 [12]: > 10 µM
- IC50 [13]: > 10 µM

Structure (SMILES): O=C(CCC(=O)NNC(=O)c1ccc([N+](=O)[O-])cc1)NO [Compound 3, N-hydroxy-4-[2-(4-nitrobenzoyl)hydrazinyl]-4-oxobutanamide]
- IC50 [7]: > 500 µM
- IC50 [3, 14]: 252 ± 15.8 µM
- IC50 ([4]; Homo sapiens, HeLa): 237 ± 14.2 µM
- IC50 [5, 15]: > 500 µM
- IC50 ([6]; Chlorocebus sabaeus, Vero): > 500 µM
- IC50 at 72 h [8]: > 100 µM
- IC50 [9]: > 500 µM
- IC50 [10]: > 10 µM
- IC50 [11]: > 10 µM
- IC50 [12]: > 10 µM
- IC50 [13]: > 10 µM
